The results in this text go back to patent US20180066322A1, “BIOMARKERS ASSOCIATED WITH CDK INHIBITORS” (NOVARTIS AG, priority 2012, published 2018).

“Also recorded” adds a separate entry of the source.

Assay [1] concerns DLBCL models harboring mutant CCND3 (PEST-domain mutation). As to the kind of experiment: Cell viability by Cell Titer Glo (cellular ATP), 72 hours, cells containing mutant CCND3. In kind it is cell-based, human. As to conditions: 10 μM to 1.5 nM. The method, then: Using the pharmacologic characterization of the COLE cell lines, cell lines containing CCND3 mutations were tested for CDKi sensitivity. DOHH-2, NU-DHL-1, SEM, SU-DHL-4, SU-DHL-6, and SU-DHL-10 cells were purchased from Deutsche Sammlung von Mikroorganismen and Zellkulturen GmbH (DSMZ). DB and Pfeiffer cells were purchased from American Type Culture Collection (ATCC). A4/FUK cells were purchased from Health Science Research Resources Bank (HSRRB). These cells were cultured in RPMI 1640 medium (ATCC) supplemented with either 10% (A4/FUK, DB, DOHH-2, Pfeiffer, and SEM cells) or 20% (NU-DHL-1, SU-DHL-4, SU-DHL-6, and SU-DHL-10) fetal bovine serum (Gibco) and incubated at 37° C./5% CO2. For screening, cells were seeded in 80 μl of medium in 96-well plates (Costar #3904) at 10,000 (DB, DOHH-2, NU-DHL-1, SEM, SU-DHL-4, SU-DHL-6, and SU-DHL-10), 15,000 (A4/FUK) or 20,000 (Pfeiffer) cell densities and incubated overnight prior to compound addition. A4/FUK, DOHH-2, NU-DHL-1, SU-DHL-10, DB, Pfeiffer, SU-DHL-4 and SU-DHL-6 cells are diffuse large B cell lymphoma (DLBCL) cell lines. SEM cells are acute lymphoblastic B cell leukemia cells.
Compound stock (5×) was freshly prepared in the appropriate culture medium, and manually added to the plates by electronic multichannel pipette. In a minimum of three replicate wells, the number & viability of cells at the time of compound addition, as well as single agent effects after 72 hours, was assessed by quantification of cellular ATP levels via Cell Titer Glo (Promega, Madison, Wis.) according to the manufacturer's protocol. Day 0 subtracted-EC^50s were calculated using standard four-parametric curve fitting (XLFit, model 205).
CDKi(1)-CDKi(3) were synthesized at Novartis Pharma AG, and compound stocks were prepared in DMSO at a final concentration of 10 mM. Working stocks were serially diluted in the appropriate cell culture medium in 3-fold increments to achieve final assay concentrations ranging from 10 μM to 1.5 nM.
(In ATP-based viability assays light output follows the ATP content of the culture.)

Assay [2] concerns DLBCL models harboring wild-type CCND3. As to the kind of experiment: Cell viability by Cell Titer Glo (cellular ATP), 72 hours, cells containing wild type CCND3. In kind it is cell-based, human. As to conditions: 10 μM to 1.5 nM. As for the experimental part:
Using the pharmacologic characterization of the COLE cell lines, cell lines containing CCND3 mutations were tested for CDKi sensitivity. DOHH-2, NU-DHL-1, SEM, SU-DHL-4, SU-DHL-6, and SU-DHL-10 cells were purchased from Deutsche Sammlung von Mikroorganismen and Zellkulturen GmbH (DSMZ). DB and Pfeiffer cells were purchased from American Type Culture Collection (ATCC). A4/FUK cells were purchased from Health Science Research Resources Bank (HSRRB). These cells were cultured in RPMI 1640 medium (ATCC) supplemented with either 10% (A4/FUK, DB, DOHH-2, Pfeiffer, and SEM cells) or 20% (NU-DHL-1, SU-DHL-4, SU-DHL-6, and SU-DHL-10) fetal bovine serum (Gibco) and incubated at 37° C./5% CO2. […]
Compound stock (5×) was freshly prepared in the appropriate culture medium, and manually added to the plates by electronic multichannel pipette. In a minimum of three replicate wells, the number & viability of cells at the time of compound addition, as well as single agent effects after 72 hours, was assessed by quantification of cellular ATP levels via Cell Titer Glo (Promega, Madison, Wis.) according to the manufacturer's protocol. Day 0 subtracted-EC^50s were calculated using standard four-parametric curve fitting (XLFit, model 205). […]

`CC(=O)c1c(C)c2cnc(Nc3ccc(N4CCNCC4)cn3)nc2n(C2CCCC2)c1=O` [CDKi(2), PD0332991, reference compound]: the “sensitivity / cell viability of cells containing mutant CCND3” value in assay [1] is “more sensitive; also recorded: sensitivity”.
Take `CS(=O)(=O)N1CCC(NC(=O)c2[nH]ncc2NC(=O)c2c(Cl)cccc2Cl)CC1` [CDKi(3)]: the “sensitivity / cell viability of cells containing wild type CCND3” value in assay [2] is given as “more sensitive to the pan-CDK inhibitor than to the specific CDK 4/6 inhibitors; also recorded: insensitivity”. Besides, in assay [1], the “sensitivity / cell viability of cells containing mutant CCND3” value is reported as “more sensitive to the pan-CDK inhibitor than to the specific CDK 4/6 inhibitors; also recorded: insensitivity”.
Regarding `CN(C)C(=O)c1cc2cnc(Nc3ccc(N4CCNCC4)cn3)nc2n1C1CCCC1` [CDKi(1)], the “sensitivity / cell viability of cells containing mutant CCND3” value in assay [1] is on record as “increased sensitivity”.
